Reference: patent US20130324542A1, “[1,2,4]TRIAZOLO[4,3-B][1,2,4]TRIAZINE COMPOUNDS, PREPARATION METHOD AND USE THEREOF” (SHANGHAI INSTITUTE OF MATERIA MEDICA, CHINESE ACADEMY OF …, priority 2010, published 2013)

Key:
c-Met tyrosine kinase = c-Met tyrosine kinase (Homo sapiens, UniProt P08581); experiment: c-Met kinase activity on molecular level (ELISA, Poly(Glu,Tyr)4:1 substrate); type: biochemical; conditions: ATP 5 μM, 37° C., 1 h
Description: Poly(Glu, Tyr)4:1 as an enzyme substrate was diluted by potassium ion-free PBS (10 mM, sodium phosphate buffer, 150 mM NaCl, pH7.2-7.4) into a solution of 20 μg/ml. […] After the liquid in wells was removed, the plate was washed three time by T-PBS (PBS solution containing 0.1% Tween-20) at 200 μl/well, 5 min for each time. The ELISA plate was then dried in an oven at 37° C. for 1-2 h.
Each well was added with 50 μL of ATP solution diluted by reaction buffer (50 mM HEPES pH 7.4, 50 mM MgCl2, 0.5 mM MnCl2, 0.2 mM Na3VO4, 1 mM DTT) at a final concentration of 5 μM. Compound diluted by 1% DMSO into a suitable concentration was added at 10 μl/well and then c-Met tyrosine kinase protein diluted by 40 μl of reaction buffer was added. The plate was placed on a shaking table (100 rpm) at 37° C. and incubated for 1 h, and then washed three times by T-PBS. For each assay, triplicate wells without enzyme were used as blank control and wells having the corresponding DMSO concentration without compound were used as negative control. Primary antibody PY99 (p-Tyr (PY99), Cell Signaling Technology, 1:1000 diluted in 5 mg/mL BSA T-PBS) was added at 100 μl/well. The plate was then placed on a shaking table at 37° C. and incubated for 0.5 h, and washed by T-PBS. Secondary antibody horseradish peroxidase-conjugated goat anti-mouse IgG (1:2000 diluted in 5 mg/mL BSA T-PBS) was added at 100 μl/well. The plate was then placed on a shaking table at 37° C. for 0.5 h and washed three times by T-PBS. 2 mg/mL of OPD developer (diluted by a 0.1M citric acid-sodium citrate buffer (pH=5.4) containing 0.03% of H2O2) was added at 100 μl/well, and the plate was kept in dark at 25° C. for 1-10 min. OPD was ultrasonically dissolved and the developer solution was prepared just before use. 2 M of H2SO4 was added at 50 μl/well to stop the reaction. The plate was read using a wavelength regulated multi-well spectrophotometer (SPECTRA MAX 190) at 490 nm.
The inhibition rate was calculated according to the following equation:
Inhibition rate (%)=(1−(ODcompound−ODblank)/(ODnegative−ODblank))×100%
IC50 value was calculated through a four-parameter fit according to the inhibition curve.

NIH3T3/TPR-Met cells = experiment: Cell proliferation mediated by c-Met, SRB assay, NIH3T3/TPR-Met cells; type: cell-based; conditions: 72 h; for inhibition at 10 µM / inhibition at 1 µM / inhibition at 50 µM: Mus musculus, NIH3T3, read-out: inhibition rate (%) on proliferation of NIH3T3/TPR-Met cells
Description: Three concentrations were set, and for each concentration, the test was carried out in triplicate wells. 72 h later, the culture medium was removed. The residue was fixed by precooled 10% TCA at 4° C. for 1 h, washed by distilled water for 5 times and dried at room temperature. […] The excess dye was removed by washed with 1% glacial acetic acid for 5 times and dried in air. At last, 150 μL of Tris-HCL solution (10 mM Tris, pH 10.0) was added to each well.

NIH3T3 background cells = experiment: Cell proliferation, SRB assay, NIH3T3 background cells as control; type: cell-based; conditions: 72 h; for inhibition at 10 µM / inhibition at 1 µM / inhibition at 50 µM: Mus musculus, NIH3T3, read-out: inhibition rate (%) on proliferation of NIH3T3 background cells
Description: NIH3T3/TPR-Met cells in the logarithmic growth phase and NIH3T3 background cells were seeded in a 96-well microcuture plate at 90111_, per well and cultivated overnight, followed by addition of 104 of the compound at different concentrations. Three concentrations were set, and for each concentration, the test was carried out in triplicate wells. 72 h later, the culture medium was removed. The residue was fixed by precooled 10% TCA at 4° C. for 1 h, washed by distilled water for 5 times and dried at room temperature. After that, 4 mg/mL of sulforodamine B (SRB) in 1% glacial acetic acid was added to each well (1004 per well) for staining at room temperature for 15 min. The excess dye was removed by washed with 1% glacial acetic acid for 5 times and dried in air. At last, 150 μL of Tris-HCL solution (10 mM Tris, pH 10.0) was added to each well. OD values were measured on a multi-well spectrophotometer at […].

[1] = system: Human Glioblastoma Cells U-87MG Xenograft; experiment: Tumor growth in human glioblastoma U-87MG xenograft model of nude mice; type: in vivo; conditions: for tumor growth inhibition (TGI): 17 days, end of treatment; for inhibitory action on the growth of transplanted tumor: at each administration dose (50, 100 mg/kg i.p. daily)
Description: The treatment group was administered intraperitoneally and daily with compound I-19 at various concentrations (50 mg/kg, 100 mg/kg) respectively.
The length (A) and width (B) of the tumor in mice were measured twice a week and tumor volume was calculated thereby as: V=A×B^2/2. Provided that Vt was the tumor volume measured at a given time point and V0 was the tumor volume measured before the mice were grouped and administered, tumor growth inhibition (TGI) was calculated as: […]

[2] = Body weight and death of nude mice bearing U-87MG (toxicity and side effect); conditions: for weight loss of nude mice: 50 and 100 mg/kg intraperitoneally once daily, 17 days
Description: LI-87MG Cells were inoculated subcutaneously in right axillary fossa of nude mice with 5×10^6 cells per mouse. After the xenografted tumor was formed, it was passed three generations in nude mice and then used. Tumor tissue in productive phase was cut into nubs of about 1.5 mm^3 and inoculated subcutaneously in right axillary fossa of the nude mice in a sterile condition. The diameters of the xenografted tumors were measured by a vernier caliper. […] The administration was performed once daily and lasted for 17 days. At the same time, the negative group was administered with equivalent physiological saline.
wherein, CVt was tumor volume in control group measured at a given time point, CV0 was tumor volume in control group measured before grouping and treatment, TVt was tumor volume in treatment group measured at a given time point, and TV0 was tumor volume in treatment group measured before grouping and treatment. The significant differences between the treated and control groups were evaluated using t-test. At the same time, body weight of nude mice in each group was measured twice a week to preliminarily evaluate the toxicity and side effect of compound.

TPR-Met = biological target: T1, TPR-Met (Homo sapiens, UniProt P08581); experiment: TPR-Met phosphorylation in NIH3T3/TPR-Met cells (Western blot); type: cell-based; conditions: 0.01 μM, 6 h
T1 construct: therein no interference of Met's extracellular fragment, and the intracellular TPR-Met fused protein was expressed in cytoplasm; expressed in transfected cells; host or cells: NIH3T3/TPR-Met cells (mouse fibroblasts expressing TPR-Met); the other entry of the earlier key: TPR (P12270, Nucleoprotein TPR)
T1 sequence (P08581 with tags, fused parts or gaps): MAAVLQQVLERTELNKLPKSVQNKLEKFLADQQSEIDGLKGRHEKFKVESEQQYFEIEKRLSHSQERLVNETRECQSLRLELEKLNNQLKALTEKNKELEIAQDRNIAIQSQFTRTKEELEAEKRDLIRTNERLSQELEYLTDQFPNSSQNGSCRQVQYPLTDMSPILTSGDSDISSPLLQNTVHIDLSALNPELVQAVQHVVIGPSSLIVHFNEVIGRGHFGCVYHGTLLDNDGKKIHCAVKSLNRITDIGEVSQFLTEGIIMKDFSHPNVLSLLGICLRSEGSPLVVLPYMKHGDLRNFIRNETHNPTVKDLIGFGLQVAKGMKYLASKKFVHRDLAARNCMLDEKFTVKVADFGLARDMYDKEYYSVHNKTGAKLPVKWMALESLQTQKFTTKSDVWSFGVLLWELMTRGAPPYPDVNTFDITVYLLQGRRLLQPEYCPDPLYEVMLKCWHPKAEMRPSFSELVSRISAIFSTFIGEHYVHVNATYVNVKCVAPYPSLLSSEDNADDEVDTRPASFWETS
Description: NIH3T3/TPR-Met cells (in such cells, therein no interference of Met's extracellular fragment, and the intracellular TPR-Met fused protein was expressed in cytoplasm and could be activated continuously independent of HGF) were inoculated on a 12-well plate. After fusion degree reached 80%, the cells were treated with indicated concentration of corresponding compounds and SU11274 for 6 h at 37° C., collected and washed once by cold PBS (containing 1 mM sodium vanadate), and lysed with 1×SDS gel loading buffer (50 mM Tris-HCl (pH 6.8), 100 mM DTT, 2% SDS, 10% glycerin, 1 mM sodium vanadate, and 0.1% bromophenol blue). The lysate was heated in a boiling-water bath for 10 min and then centrifuged (12000 rpm) at 4° C. for 10 min.
The supernatant was subjected to SDS-PAGE electrophoresis and the protein was transferred to nitrocellulose membranes (Amersham Life Sciences, Arlington Heights, Ill., USA) by a Semi-Dry Electroblotting System. […] The membrane was washed three times by TBS/T containing 1 mM of sodium vanadate, 15 min for each time, and then placed in a solution of secondary antibody (1:2000) at room temperature for 1-2 hours. After the membranes were washed 3 times as above, they were dyed with an ECL reagent, exposed and developed.
The nitrocellulose membranes were placed in Reblot™ solution of Chemicon co. […]

[3] = 50 mg/kg intraperitoneally once daily
[4] = 100 mg/kg intraperitoneally once daily

c-Met tyrosine kinase, sequence (P08581 25-1390): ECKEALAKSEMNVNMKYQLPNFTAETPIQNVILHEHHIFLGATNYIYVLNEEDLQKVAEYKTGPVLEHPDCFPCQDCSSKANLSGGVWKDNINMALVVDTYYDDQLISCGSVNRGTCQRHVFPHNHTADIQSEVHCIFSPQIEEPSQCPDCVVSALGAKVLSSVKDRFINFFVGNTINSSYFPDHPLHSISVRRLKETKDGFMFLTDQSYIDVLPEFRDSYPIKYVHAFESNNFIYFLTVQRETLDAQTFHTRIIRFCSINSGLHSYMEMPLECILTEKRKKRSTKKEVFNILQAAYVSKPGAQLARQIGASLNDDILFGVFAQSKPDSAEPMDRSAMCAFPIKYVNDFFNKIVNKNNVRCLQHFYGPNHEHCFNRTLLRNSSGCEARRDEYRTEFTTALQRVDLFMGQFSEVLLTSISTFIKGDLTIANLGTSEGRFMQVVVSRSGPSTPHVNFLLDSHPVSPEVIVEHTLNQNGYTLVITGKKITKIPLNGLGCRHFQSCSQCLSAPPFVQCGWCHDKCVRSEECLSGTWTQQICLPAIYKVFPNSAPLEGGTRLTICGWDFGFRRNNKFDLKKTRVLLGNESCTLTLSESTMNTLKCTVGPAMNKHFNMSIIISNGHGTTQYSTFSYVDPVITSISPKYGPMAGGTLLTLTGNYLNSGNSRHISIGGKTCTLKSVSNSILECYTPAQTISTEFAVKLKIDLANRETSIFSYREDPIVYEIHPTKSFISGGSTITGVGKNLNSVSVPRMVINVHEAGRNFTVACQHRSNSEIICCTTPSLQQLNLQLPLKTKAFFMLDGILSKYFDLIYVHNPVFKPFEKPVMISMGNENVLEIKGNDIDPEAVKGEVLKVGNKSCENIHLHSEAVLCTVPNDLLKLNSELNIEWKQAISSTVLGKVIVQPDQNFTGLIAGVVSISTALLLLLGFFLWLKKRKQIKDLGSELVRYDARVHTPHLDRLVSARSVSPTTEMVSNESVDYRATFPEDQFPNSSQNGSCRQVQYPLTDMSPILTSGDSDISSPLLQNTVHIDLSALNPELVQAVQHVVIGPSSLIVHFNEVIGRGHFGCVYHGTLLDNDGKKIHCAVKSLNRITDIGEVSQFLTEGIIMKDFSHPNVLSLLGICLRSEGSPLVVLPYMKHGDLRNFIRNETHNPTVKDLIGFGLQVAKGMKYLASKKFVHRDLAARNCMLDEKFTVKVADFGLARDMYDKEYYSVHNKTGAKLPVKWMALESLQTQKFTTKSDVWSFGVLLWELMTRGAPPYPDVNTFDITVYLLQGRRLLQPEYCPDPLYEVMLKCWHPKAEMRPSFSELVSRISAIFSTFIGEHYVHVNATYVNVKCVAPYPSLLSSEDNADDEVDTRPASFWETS

SMILES | IC50 (c-Met tyrosine kinase) | inhibition at 10 µM (NIH3T3/TPR-Met cells; 10 μM) | inhibition at 10 µM (NIH3T3 background cells; 10 μM) | inhibition at 1 µM (NIH3T3/TPR-Met cells; 1 μM) | inhibition at 50 µM (NIH3T3/TPR-Met cells; 50 μM) | inhibition at 1 µM (NIH3T3 background cells; 1 μM) | inhibition at 50 µM (NIH3T3 background cells; 50 μM) | further results
Cn1cc(-c2cnc3nnc(C(F)(F)c4ccc5ncccc5c4)n3n2)cn1 [Compound I-19, 3-[(6-quinolyl)difluoromethyl]-6-[(1-methyl)-4-pyrazolyl]-[1,2,4]triazolo[4,3-b][1,2,4]triazine] | – | – | – | – | – | – | – | tumor growth inhibition (TGI) [1, 3]: 83.9%; tumor growth inhibition (TGI) [1, 4]: 95.3%; inhibitory action on the growth of transplanted tumor [1]: significantly inhibitory action; death of mice [2, 4]: one mouse died on the 9th day; weight loss of nude mice [2]: No mouse in I-19 or JNJ-38877605 treated group show obvious weight loss
COc1cc2nccc(OCc3nnc4ncc(-c5ccc(Cl)cc5)nn34)c2cc1OC [II-15, 3-[(6,7-dimethoxy-4-quinolyl)oxymethyl]-6-(4-chlorophenyl)-[1,2,4]triazolo[4,3-b][1,2,4] triazine] | 182 nM | 22.6% | 0% | – | – | – | – | –
COC(=O)c1ccc(-c2cnc3nnc(COc4ccnc5cc(OC)ccc45)n3n2)cc1 [II-5, 3-[(7-methoxy-4-quinolyl)oxymethyl]-6-(4-methoxyformylphenyl)-[1,2,4]triazolo[4,3-b][1,2, 4]triazine] | 0.78 nM | 79.2% | 6.2% | – | – | – | – | –
COc1ccc2c(OCc3nnc4ncc(-c5cccs5)nn34)ccnc2c1 [II-4, 3-[(7-methoxy-4-quinolyl)oxymethyl]-6-(2-thienyl)-[1,2,4]triazolo[4,3-b][1,2,4]triazine] | 20.1 nM | 80.6% | 0% | – | – | – | – | –
Cn1cc(-c2ccc3nnc(C(F)(F)c4ccc5ncccc5c4)n3n2)cn1 [JNJ-38877605, reference compound] | 0.95 nM | – | – | – | – | – | – | c-Met phosphorylation in NIH3T3/TPR-Met cells (TPR-Met): less potency; inhibition rate (%) on proliferation of NIH3T3/TPR-Met cells (NIH3T3/TPR-Met cells; 1 μM): 70.8%; inhibition rate (%) on proliferation of NIH3T3/TPR-Met cells (NIH3T3/TPR-Met cells; 10 μM): 72.2%; inhibition rate (%) on proliferation of NIH3T3/TPR-Met cells (NIH3T3/TPR-Met cells; 50 μM): 77.3%; inhibition rate (%) on proliferation of NIH3T3 background cells (NIH3T3 background cells; 1 μM): 16.0%; inhibition rate (%) on proliferation of NIH3T3 background cells (NIH3T3 background cells; 10 μM): 15.1%; inhibition rate (%) on proliferation of NIH3T3 background cells (NIH3T3 background cells; 50 μM): 25.7%; tumor growth inhibition (TGI) [1, 3]: 101.4%; tumor growth inhibition (TGI) [1, 4]: 106.9%; inhibitory action on the growth of transplanted tumor [1]: significantly inhibitory action; weight loss of nude mice [2]: No mouse in I-19 or JNJ-38877605 treated group show obvious weight loss
CC(C)(C)OC(=O)N1CCC(n2cc(-c3cnc4nnc(C(F)(F)c5ccc6ncccc6c5)n4n3)cn2)CC1 [Compound I-20, 3-[(6-quinolyl)difluoromethyl]-6-[1-(1-tert-butoxycarbonyl-4-piperidyl)-4-pyrazolyl]-[1,2,4] triazolo[4,3-b][1,2,4]triazine] | 7.9 nM | 87.8% | 25.8% | 81.2% | 86.5% | 18.8% | 38.6% | –

More lines, main results first:

IC50 (c-Met tyrosine kinase) | SMILES | inhibition at 10 µM (NIH3T3/TPR-Met cells; 10 μM) | inhibition at 10 µM (NIH3T3 background cells; 10 μM) | inhibition at 1 µM (NIH3T3/TPR-Met cells; 1 μM) | inhibition at 50 µM (NIH3T3/TPR-Met cells; 50 μM) | inhibition at 1 µM (NIH3T3 background cells; 1 μM) | inhibition at 50 µM (NIH3T3 background cells; 50 μM) | further results
0.37 nM | COc1ccc2c(OCc3nnc4ncc(-c5ccc(Cl)cc5)nn34)ccnc2c1 [II-2, 3-[(7-methoxy-4-quinolyl)oxymethyl]-6-(4-chlorophenyl)-[1,2,4]triazolo[4,3-b][1,2,4]triazine] | 79% | 21% | – | – | – | – | –
1 nM | COc1cccc(-c2cnc3nnc(COc4ccnc5ccccc45)n3n2)c1 [II-26, 3-(4-quinolyloxymethyl)-6-(3-methoxyphenyl)-[1,2,4]triazolo[4,3-b][1,2,4]triazine] | 82.7% | 58.7% | 20.9% | 83.9% | 36.8% | 62.2% | –
0.78 nM | Oc1ccc(-c2cnc3nnc(COc4ccnc5ccccc45)n3n2)cc1 [II-24, 3-(4-quinolyloxymethyl)-6-(4-hydroxyphenyl)-[1,2,4]triazolo[4,3-b][1,2,4]triazine] | 53.1% | 25.1% | 5.3% | 70.6% | 17.1% | 28.4% | –
0.88 nM | COc1ccc(-c2cnc3nnc(COc4ccnc5ccccc45)n3n2)cc1 [II-23, 3-(4-quinolyloxymethyl)-6-(4-methoxyphenyl)-[1,2,4]triazolo[4,3-b][1,2,4]triazine] | 83.2% | 49.8% | 29% | 88.5% | 22.8% | 31.3% | –
0.81 nM | Fc1ccc(-c2cnc3nnc(COc4ccnc5ccccc45)n3n2)cc1 [II-21, 3-(4-quinolyloymethyl)-6-(4-fluorophenyl)-[1,2,4]triazolo[4,3-b][1,2,4]triazine] | 81.4% | 53.9% | 24.6% | 84.3% | 28.9% | 57.5% | –
0.7 nM | c1ccc(-c2cnc3nnc(COc4ccnc5ccccc45)n3n2)cc1 [II-22, 3-(4-quinolyloxymethyl)-6-phenyl-[1,2,4] triazolo[4,3-b][1,2,4]triazine] | 81.7% | 53.8% | 63.9% | 78.8% | 38.6% | 48.1% | –
